Data published in patent publication US6808877B2, “Ligands for FPR class receptors that induce a host immune response to a pathogen or inhibit HIV infection” (priority 2000, dated 2004).

Key:
monocytes [1] = test: Ca2+ mobilization of monocytes in response to chemokines after preincubation (heterologous desensitization); assay type: cell-based, human; settings: 37° C., 60 min
Protocol: Calcium mobilization was measured by incubating monocytes (2×10^7/ml) in loading medium (DMEM, 10% FCS) with 5 μM Fura-2 AM (Molecular Probes, Eugene, Oreg.) for 30 min at room temperature in the dark. The dye-loaded cells were washed 3 times and resuspended in saline buffer (138 mM NaCl, 6 mM KCl, 1 mM CaCl2, 10 mM Hepes pH 7.4, 5 mM glucose, 0.1% BSA). The cells were then transferred into quartz cuvettes (2×10^6 cells in 2 ml) which were placed in a luminescence spectrometer (LS-50B, Perkin-Elmer, Beaconsfield, UK). Stimulants at different concentrations were added in a volume of 20 μl to each cuvette at the indicated time points. The ratio of fluorescence at 340 and 380 nm was calculated using a FL-WinLab program (Perkin Elmer). To examine the effect of fMLP, monocytes were preincubated with 10^−6 M fMLP or with medium alone for 60 min at 37° C. The cells were thoroughly washed and then were stained with Fura-2 for the calcium mobilization desensitization. The results are representative of at least three experiments performed.
Calcium mobilization was measured by incubating 2×10^7/ml cells in loading medium (DMEM, 10% FBS) with 5 μM Fura-2 AM (Molecular Probes, Eugene, Oreg.) for 30 min at room temperature in the dark. The dye-loaded cells were washed 3 times with loading medium and resuspended in saline buffer [138 mM NaCl, 6 mM KCl, 1 mM CaCl2, 10 mM HEPES (pH 7.4), 5 mM Glucose, 0.1% BSA] at a concentration of 1×10^6/ml. The cells were then transferred into quartz cuvettes (2 ml) which were placed in a luminescence spectrometer (LS-50B, Perkin-Elmer, Beaconsfield, England). Stimulants at different concentrations were added in a volume of 20 μl to each cuvette at the indicated time points. The ratio of fluorescence at 340 and 380 nm wavelength was calculated using a FL WinLab program (Perkin-Elmer).

neutrophils = test: Neutrophil chemotaxis, 48-well micro-chemotaxis chamber; assay type: cell-based; settings: human neutrophils
monocytes [2] = test: Monocyte chemotaxis, 48-well micro-chemotaxis chamber; assay type: cell-based, human; settings: human monocytes
T lymphocytes = test: T lymphocyte chemotaxis; assay type: cell-based, human
FPR = biological target: T1, FPR (Homo sapiens, UniProt P21462); test: Migration of ETFR cells; assay type: cell-based; settings: ETFR cells (overexpressing FPR)
T1 construct: H. Ali and R. Snyderman (Duke University); host or cells: RBL-2H3 rat basophilic leukemia cells
T1 sequence (P21462 1-350): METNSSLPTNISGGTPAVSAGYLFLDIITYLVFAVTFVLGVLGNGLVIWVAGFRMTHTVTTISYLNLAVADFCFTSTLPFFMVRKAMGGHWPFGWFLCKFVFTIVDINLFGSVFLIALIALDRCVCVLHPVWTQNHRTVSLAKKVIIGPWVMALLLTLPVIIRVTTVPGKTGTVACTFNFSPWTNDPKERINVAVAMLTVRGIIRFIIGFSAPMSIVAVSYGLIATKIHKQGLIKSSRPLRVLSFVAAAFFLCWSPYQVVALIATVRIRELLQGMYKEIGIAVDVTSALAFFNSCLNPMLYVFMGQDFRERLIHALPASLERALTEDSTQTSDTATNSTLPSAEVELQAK

CXCR4 = CXCR4 (Homo sapiens, UniProt P61073); test: Interaction with CXCR4
macrophages = settings: compared to cells treated with medium alone
[3] = system: parental or mock transfected cells; test: Ca2+ mobilization in parental or mock transfected rat basophil cell line and HEK 293 cells; assay type: cell-based
monocytes [4] = test: Monocyte migration in response to MIP-1β after pretreatment; assay type: cell-based, human; settings: fMLP 10^−6 M, 37° C.
Protocol: Monocyte migration was assessed by a 48-well micro-chemotaxis chamber technique. 25 μl MIP-1β diluted in assay medium (RPMI 1640 with 1% BSA and 25 mM Hepes) was placed in the lower compartment of the chemotaxis chamber. 50 μl cell suspension (1×10^6 cell/ml) was placed in the upper compartment of the chamber. The upper and lower compartments were separated by a polycarbonate filter (5 μm pore-size, Neuroprobe, Cabin John, Md.). The chamber was incubated at 37° C. for 90 min in humidified air with 5% CO2. At the end of the incubation, the filter was removed, fixed and stained with Diff-Quik (Harlew, Gibbstown, N.J.). The migrated cells in three high-powered fields (HPF) obtained in triplicates (400×) were counted by light microscopy after coding the samples. The results are expressed as the net mean (±SD) number of migrated cells in 3 HPF after subtraction of spontaneous migration. At least three experiments were performed with same results.

HIV-1BAL-env [5] = test: HIV-1 env fusion with human blood monocytes; assay type: cell-based
HIVJRFL = assay type: cell-based, HIV-1; settings: peripheral blood monocyte/macrophages
CCR5 [6] = test: Surface expression of CCR5 on monocytes by flow cytometry; assay type: cell-based, human; settings: FITC-anti-CCR5 2D7
Protocol: The change of surface expression of CCR5 on monocytes was monitored by FACS analyses (courtesy of L. […] The cells were then washed twice with DPBS containing 2% BSA and fixed with 1% Paraformaldehyde (Sigma). The fluorescence was measured by flow cytometer (Becton Dickinson, San Jose, Calif.). Results are presented as the percentage of cells stained with anti-CCR5 antibody.

HIV-1BAL-env [7] = assay type: cell-based; settings: HOS/CD4/CCR5 cells co-expressing FPR
CCR5 [8] = assay type: cell-based, human; settings: HOS/CD4/CCR5 cells co-expressing FPR
CCR5 [9] = test: 125I-MIP-1β binding to monocytes; parameters: species or system human
Protocol: Rocky Hill, N.J.). After incubation, the cells were washed with DPBS and centrifuged through a 10% sucrose/DPBS cushion. The tips of tubes containing cell pellets were cut and the cell-associated radioactivity was determined in a gamma counter. The results were presented as counts per minute (cpm) on 2×10^6 monocyte and were representative of at least three experiments performed.

[10] = system: monocyte tropic strains of HIV-1; assay type: cell-based; settings: FPR-transfected HOS cells

CXCR4, sequence (P61073 whole entry): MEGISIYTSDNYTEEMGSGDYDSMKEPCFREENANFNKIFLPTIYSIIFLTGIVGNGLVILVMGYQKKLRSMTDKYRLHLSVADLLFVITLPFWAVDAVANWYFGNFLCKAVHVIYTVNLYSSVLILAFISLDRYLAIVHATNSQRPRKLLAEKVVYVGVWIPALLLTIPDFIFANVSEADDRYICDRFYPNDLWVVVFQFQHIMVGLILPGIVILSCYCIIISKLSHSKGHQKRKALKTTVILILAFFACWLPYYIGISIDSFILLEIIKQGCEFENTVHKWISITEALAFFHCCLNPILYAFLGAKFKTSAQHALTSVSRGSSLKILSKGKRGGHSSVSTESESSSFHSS

Compound	cell response (Ca2+) to MCP-1 and fMLP after preincubation (monocytes [1]; 1.5 μM)	cell response (Ca2+) to RANTES and SDF-1α after preincubation (monocytes [1]; 1.5 μM)	chemotactic activity / migration (neutrophils)	chemotactic activity / migration (monocytes [2])	chemotactic activity (T lymphocytes)	migration / chemotaxis (FPR)	interaction with CXCR4 (CXCR4)	viability of macrophages (macrophages)	Ca2+ flux in response to RANTES and MIP-1α after pretreatment (monocytes [1]; fMLP 10^−6 M)	Ca2+ mobilization [3]	chemotactic response to MIP-1β after pretreatment (monocytes [4])	HIV-1 env fusion (HIV-1BAL-env [5])	fusion and infection, syncytia formation and p24 production (HIVJRFL)	expression of CCR5 on the cell surface (CCR5 [6])	HIV-1BAL-env-mediated fusion (HIV-1BAL-env [7])	phosphorylation of CCR5 (CCR5 [8])	specific binding for 125I-MIP-1β after treatment (CCR5 [9]; monocytes treated for 1 h)	binding of 125I-MIP-1β after treatment (CCR5 [9]; monocytes treated for up to 30 min at 37° C.)	displacement of 125I-MIP-1β binding (CCR5 [9]; monocytes, high concentrations as competitor)	fusion and infection, syncytia formation and p24 production [10]
TRPNYNKRKRIHIGPGRAFYTTKNIIGTIRQAH-NH2 [V3 peptide]	minimally affected	significantly reduced	potent chemoattractant	potent chemoattractant	weak chemoattractant	low level of chemotaxis response	did not interact with CXCR4	–	–	–	–	–	–	–	–	–	–	–	–	–
CSCC[C@H](NC=O)C(=O)N[C@@H](CC(C)C)C(=O)N[C@@H](Cc1ccccc1)C(=O)O [fMLP, N-formyl-methionyl-leucyl-phenylalanine]	–	–	–	–	–	–	–	did not affect the viability of macrophages	reduced Ca^2+ flux	did not induce Ca^2+ mobilization	progressively reduced chemotactic response	inhibition of HIV-1 env fusion with blood monocytes	significantly reduced the fusion and infection	markedly downregulated	markedly inhibited	induced an increase in phosphorylation of CCR5	markedly reduced	only a marginally reduced binding	did not displace any	significantly reduced the fusion and infection
